The results in this text go back to BindingDB's records for doi:10.1021/acschembio.7b00369 (Baylor College of Medicine, 2017).

Holding throughout (assay): Microfluidic Mobility-Shift Assay
What all share (settings): pH 7

Assay [1] addresses T1, Isoform Beta of cGMP-dependent protein kinase 1 [1-351,G182E] (Human, UniProt Q13976, G182E).
T1 construct: 1-351

Assay [2] deals with T2, cGMP-dependent protein kinase 2 [41-418] (Human, UniProt Q13237).
T2 construct: 41-418
T2 sequence (Q13237 whole entry): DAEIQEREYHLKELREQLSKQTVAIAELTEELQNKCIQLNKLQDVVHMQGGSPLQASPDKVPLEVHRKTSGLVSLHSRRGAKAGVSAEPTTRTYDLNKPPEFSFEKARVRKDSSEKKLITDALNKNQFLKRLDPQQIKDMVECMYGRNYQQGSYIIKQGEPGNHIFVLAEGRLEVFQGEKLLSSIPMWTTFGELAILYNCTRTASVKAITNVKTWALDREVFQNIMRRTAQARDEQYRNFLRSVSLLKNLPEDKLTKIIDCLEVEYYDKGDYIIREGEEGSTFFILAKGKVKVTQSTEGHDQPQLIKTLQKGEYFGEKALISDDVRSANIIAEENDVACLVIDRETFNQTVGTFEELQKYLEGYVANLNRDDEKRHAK

The target of assay [3] is T3, cGMP-dependent protein kinase 2 (Homo sapiens, UniProt Q13237).
T3 sequence (Q13237 whole entry): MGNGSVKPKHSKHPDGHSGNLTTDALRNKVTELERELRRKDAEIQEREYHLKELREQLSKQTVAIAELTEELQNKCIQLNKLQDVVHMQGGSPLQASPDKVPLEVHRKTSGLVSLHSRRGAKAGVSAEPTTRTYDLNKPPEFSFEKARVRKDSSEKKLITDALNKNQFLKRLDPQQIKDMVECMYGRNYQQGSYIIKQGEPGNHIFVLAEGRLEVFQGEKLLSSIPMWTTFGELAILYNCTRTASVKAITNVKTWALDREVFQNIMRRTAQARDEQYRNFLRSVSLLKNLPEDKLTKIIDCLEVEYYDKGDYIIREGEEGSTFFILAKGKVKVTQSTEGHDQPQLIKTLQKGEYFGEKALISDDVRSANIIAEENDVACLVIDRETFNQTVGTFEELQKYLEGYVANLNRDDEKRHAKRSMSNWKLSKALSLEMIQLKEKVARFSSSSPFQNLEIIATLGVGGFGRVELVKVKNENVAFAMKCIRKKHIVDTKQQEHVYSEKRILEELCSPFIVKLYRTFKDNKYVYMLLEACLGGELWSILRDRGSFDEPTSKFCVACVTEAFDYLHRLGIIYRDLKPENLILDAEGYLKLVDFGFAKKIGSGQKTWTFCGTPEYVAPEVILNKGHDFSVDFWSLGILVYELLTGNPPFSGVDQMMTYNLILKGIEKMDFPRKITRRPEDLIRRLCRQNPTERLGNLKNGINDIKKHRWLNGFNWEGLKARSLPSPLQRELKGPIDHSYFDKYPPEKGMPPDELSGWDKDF

Assay [4] has as its target T4, cGMP-dependent protein kinase 2 [41-418,G232E] (Human, UniProt Q13237, G232E).
T4 construct: 41-418

Assay [5] addresses T5, Isoform Beta of cGMP-dependent protein kinase 1 [1-351,G306E] (Human, UniProt Q13976, G306E).
T5 construct: 1-351

The target in assay [6] is T6, Isoform Beta of cGMP-dependent protein kinase 1 [1-351] (Human, UniProt Q13976).
T6 construct: 1-351
T6 sequence (Q13976 whole entry): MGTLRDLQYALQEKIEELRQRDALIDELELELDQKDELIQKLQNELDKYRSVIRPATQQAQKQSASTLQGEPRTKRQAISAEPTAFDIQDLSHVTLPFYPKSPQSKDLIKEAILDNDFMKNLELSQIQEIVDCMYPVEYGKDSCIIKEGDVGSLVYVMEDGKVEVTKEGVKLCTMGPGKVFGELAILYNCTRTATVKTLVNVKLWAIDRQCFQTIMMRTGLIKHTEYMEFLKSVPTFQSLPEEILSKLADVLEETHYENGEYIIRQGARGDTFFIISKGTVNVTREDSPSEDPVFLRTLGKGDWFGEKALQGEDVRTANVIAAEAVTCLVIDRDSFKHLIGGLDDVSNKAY

The target in assay [7] is T7, cGMP-dependent protein kinase 2 [41-418,G356E] (Human, UniProt Q13237, G356E).
T7 construct: 41-418
T7 sequence (Q13237 41-418 G356E): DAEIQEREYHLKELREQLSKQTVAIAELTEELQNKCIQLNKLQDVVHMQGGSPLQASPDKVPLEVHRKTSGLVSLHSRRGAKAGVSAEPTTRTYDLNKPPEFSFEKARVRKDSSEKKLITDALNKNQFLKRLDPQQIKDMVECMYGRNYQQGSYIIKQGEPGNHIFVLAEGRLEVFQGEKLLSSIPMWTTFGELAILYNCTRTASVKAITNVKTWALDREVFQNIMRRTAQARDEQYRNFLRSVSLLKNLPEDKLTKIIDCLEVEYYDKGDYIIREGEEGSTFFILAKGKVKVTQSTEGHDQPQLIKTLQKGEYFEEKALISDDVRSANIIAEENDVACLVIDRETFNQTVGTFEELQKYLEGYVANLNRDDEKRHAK

Assay [8] deals with T8, Isoform Beta of cGMP-dependent protein kinase 1 [5-676,G306E] (Human, UniProt Q13976, G306E).
T8 construct: 5-676
T8 sequence (Q13976 as listed by the source G306E): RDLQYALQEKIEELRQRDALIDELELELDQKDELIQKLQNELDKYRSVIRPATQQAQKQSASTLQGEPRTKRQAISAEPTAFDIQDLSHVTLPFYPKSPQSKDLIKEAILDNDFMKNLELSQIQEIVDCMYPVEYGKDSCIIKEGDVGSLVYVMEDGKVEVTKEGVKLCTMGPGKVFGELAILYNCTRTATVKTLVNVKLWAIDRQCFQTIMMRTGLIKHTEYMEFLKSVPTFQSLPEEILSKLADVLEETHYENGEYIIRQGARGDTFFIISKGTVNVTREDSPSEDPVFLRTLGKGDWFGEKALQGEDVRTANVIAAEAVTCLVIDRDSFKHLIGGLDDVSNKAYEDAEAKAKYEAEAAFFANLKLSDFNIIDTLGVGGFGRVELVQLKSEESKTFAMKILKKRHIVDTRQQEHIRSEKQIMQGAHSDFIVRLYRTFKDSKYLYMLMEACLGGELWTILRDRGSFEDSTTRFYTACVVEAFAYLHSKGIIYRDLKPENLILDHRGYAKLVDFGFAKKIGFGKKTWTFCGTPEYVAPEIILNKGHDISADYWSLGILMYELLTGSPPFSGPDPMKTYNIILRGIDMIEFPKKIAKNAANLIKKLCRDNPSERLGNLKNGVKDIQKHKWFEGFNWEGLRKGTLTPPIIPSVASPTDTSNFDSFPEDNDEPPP

Values joined by “and” are separate entries in the source; they are usually repeats but may differ in a detail not shown here. Equal entries are not always repeated.

T4 sequence (Q13237 41-418 G232E): as the sequence (Q13237 41-418 G356E) above, with G192E, E316G counted along it
T5 sequence (Q13976 as listed by the source G306E): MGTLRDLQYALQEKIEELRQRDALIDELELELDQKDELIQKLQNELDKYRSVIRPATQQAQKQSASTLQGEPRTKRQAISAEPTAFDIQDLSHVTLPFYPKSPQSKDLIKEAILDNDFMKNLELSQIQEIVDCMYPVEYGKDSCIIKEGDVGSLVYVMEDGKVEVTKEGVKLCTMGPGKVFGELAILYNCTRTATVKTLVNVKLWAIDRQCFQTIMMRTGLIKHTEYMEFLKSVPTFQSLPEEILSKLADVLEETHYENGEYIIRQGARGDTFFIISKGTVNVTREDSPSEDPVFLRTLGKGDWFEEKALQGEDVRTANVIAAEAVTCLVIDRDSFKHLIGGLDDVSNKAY
T1 sequence (Q13976 as listed by the source G182E): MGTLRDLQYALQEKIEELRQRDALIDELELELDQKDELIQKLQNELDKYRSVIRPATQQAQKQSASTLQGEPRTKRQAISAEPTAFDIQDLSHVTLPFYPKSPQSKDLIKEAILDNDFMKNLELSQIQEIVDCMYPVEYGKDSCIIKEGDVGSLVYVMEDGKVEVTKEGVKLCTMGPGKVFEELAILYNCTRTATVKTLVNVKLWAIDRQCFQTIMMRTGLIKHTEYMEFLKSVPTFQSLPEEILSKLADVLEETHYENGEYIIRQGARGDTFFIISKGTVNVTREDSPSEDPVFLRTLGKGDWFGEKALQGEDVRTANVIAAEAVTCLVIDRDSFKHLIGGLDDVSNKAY

Regarding `Nc1nc(O)c2nc(Br)n([C@@H]3O[C@@H]4COP(=O)(O)O[C@H]4[C@H]3O)c2n1` [2-amino-8-bromo-9-[(2R,4aR,6R,7R,7aS)-2,7-dihydroxy-2-oxotetrahydro-2H,4H-2lambda~5~-furo[3,2-d][1,3,2]dioxaphosphinin-6-yl]-1,9-dihydro-6H-purin-6-one], the EC50 (usually the concentration that produces a half-maximal response) in assay [1] is 765 nM; in assay [2] it was 20 nM; in assay [3], 58 nM; in assay [4] it was 11 nM; in assay [5] it was below 2 nM; in assay [6] it was 222 nM. The EC50 in assay [7] was 30 nM; in assay [8], 206 nM.

On to `Nc1nc(=O)c2nc(Sc3ccc(Cl)cc3)n([C@@H]3O[C@@H]4COP(=O)(O)O[C@H]4[C@H]3O)c2[nH]1` [8-pCP-cGMP], for which the EC50 in assay [1] was 328 nM and 206 nM; in assay [4] it was 184 nM and 116 nM; in assay [5], 4.2 nM and 7.7 nM; in assay [6], 163 nM and 212 nM; in assay [8], 370 nM and 249 nM.

For the compound `O=c1c2ncn([C@@H]3O[C@@H]4COP(=O)(O)O[C@H]4[C@H]3O)c2[nH]c2nc(-c3ccccc3)cn12` [PET-cGMP], the EC50 is 5.8 nM in assay [1]; 193 nM in assay [2]; 225 nM in assay [3]; 1960 nM in assay [4]; below 2 nM in assay [5]; 3.8 nM in assay [6]. Moreover, the results for the EC50 in assay [7] and in assay [8] were 5.3 nM and 18 nM, respectively.
